In article PMC6777076 (ACS Omega, 2019):

Biological target: T1, uridine nucleoside ribohydrolase (UNH) (Trichomonas vaginalis, UniProt A2FTT0)
T1 sequence (A2FTT0 1-347): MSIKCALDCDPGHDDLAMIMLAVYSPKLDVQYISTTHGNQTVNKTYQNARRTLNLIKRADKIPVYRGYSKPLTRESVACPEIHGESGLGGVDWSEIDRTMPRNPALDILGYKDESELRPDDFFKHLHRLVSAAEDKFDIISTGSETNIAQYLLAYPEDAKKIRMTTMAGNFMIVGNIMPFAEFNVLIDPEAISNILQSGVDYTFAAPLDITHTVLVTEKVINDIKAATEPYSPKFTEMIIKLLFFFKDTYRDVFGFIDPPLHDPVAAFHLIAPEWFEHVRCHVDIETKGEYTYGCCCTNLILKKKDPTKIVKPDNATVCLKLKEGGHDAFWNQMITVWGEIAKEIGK
Experiment: 19F NMR-based activity assay
Format: biochemical
Settings: from UNH potency and heavy atom count

| LE (ligand efficiency) | Structure (SMILES) |
| --- | --- |
| 0.53 | CSc1nc2ccccc2[nH]1 [2-methylthiobenzimidazole] |
| 0.36 | COc1ccc2[nH]c([S+]([O-])Cc3ncc(C)c(OC)c3C)nc2c1 (centres unmarked) [omeprazole] |
